Entries after “also recorded” stand apart in the source; their conditions may differ.
Tests used:
PK-1 and PAE's cells = assay: Antibody staining and FACS analysis of porcine cells; type: binding; settings: for inhibition of anti-GAL IgM and/or IgG staining of porcine cells by sugar: anti-GAL antibodies pre-incubated with sugar (0.1 M) at 37° C. for 30 min; for decrease of anti-GAL antibody staining of PAE's (FIG. 1): anti-GAL antibody pre-incubated with sugar, versus anti-GAL antibody alone
Method: C. Antibody Staining and FACS Analysis • 1) Add 2 ml TED to a 75 cm^2 culture flask containing PK-1 or PAE'S, and incubate at room temperature for 10 min. • 2) Add RPMI plus 10% FCS (5 ml) to neutralize trypsin. • 3) Pellet cells by centrifugation (700 g, 5 min, • 4) Wash cells by resuspension and centrifugation in Hanks Buffer (×2). • 5) Pellet cells by centrifugation (700 g, 5 min, 4° C.). • 6) Resuspend cell pellet in Hanks buffer containing purified anti-GAL antibodies, GAL-depleted serum or GAL-depleted IgG and incubate at 4° C. for 60 min. All antibodies were used undiluted, or diluted 1:2 or 1:4 in Hanks buffer. • 7) Add 1 ml of Hanks Buffer, pellet cells by centrifugation and aspirate off supernatant. • 8) Resuspend pellet in FITC-labelled sheep-anti-human IgG Fab2 or IgM Fab2 (Silenus, Hawthorn, Australia) diluted 1:80 in Hanks buffer. • 9) Incubate for 30 min. at 4° C. • 10) Wash three times with Hanks buffer; resuspend pellet from final wash in 0.5 ml Hanks buffer. • 11) Analyze stained samples using a FACScan II (Becton Dickinson) according to the manufacturer's instructions.
The specificity of the anti-GAL antibody binding to porcine cells was determined by examining the ability of sugars of various structures to inhibit antibody binding. In these competition studies the anti-GAL antibodies were pre-incubated with sugar (0.1 M) at 37° C. for 30 min before adding to the cells.

rat heart = assay: Langendorf isolated perfused ex vivo heart model; settings: sugar 10 mM, human plasma to 13%
Method: A. Preparation and Storage of Human Plasma • 1. Centrifuge fresh human blood at 3000 rpm, 10 min., 4° C. to remove red blood cells (RBC's) • 2. Remove the plasma • 3. Centrifuge the plasma at 10,000 rpm, 10 min. 4° C. to remove any remaining cells; decant the plasma • 4. Add 2.5 ml of 0.1M EDTA pH 7.30 for every 50 ml of plasma • 5. Store 50 ml aliquots at −70° C. • 6. For heat-inactivated plasma, heat at 56° C. for 60 min., then centrifuge at 2,500 rpm for 10 min.
Plasma prepared from different blood packs is thawed at 37° C., pooled and filtered (100 μm steel mesh, 8.0 μm and 4.5 μm Millipore filters, sequentially). Cacl2 is added at 0.58 mg/ml plasma, and the plasma kept on ice until ready for perfusion.
1. Anesthetize rats with Nembutal (1 μl sodium pentobarbitone (60 mg/ml)/g body weight) and mice with ether.
2. Surgically expose the heart and inject heparin (Porcine Mucous, 10,000 U/ml) into the femoral vein (rats: 0.3 ml injected).
3. Remove heart and place in ice-cold Krebs-Henseleit buffer containing heparin (0.2 ml/50 ml buffer. • Krebs-Henseleit buffer: • 119 mM NaCl • 25 mM NaHCO3 • 4.6 mM KCl • 1.2 mM MgSO4.7H2O • 1.3 mM CaCl2.2H2O • 1.2 mM KH2PO4 • 11 mM glucose • 0.25% (v/v) BSA • Adjust to pH 7.4; store at 4° C.
4. Connect aorta to the canula of the Langendorf perfusion apparatus and tie firmly. The apparatus was assembled by the present inventors according to experimental requirements of the Langendorf heart model as described in Doring & Dehnerrt, The Isolated Perfused Heart According to Langendorf, Bionesstechnik-Verlag March GmbH, D7806, West Germany.
5. Perfuse with Krebs-Henseleit buffer (made fresh each day), which is gassed continuously with carbogen (95% O2, 5% CO2) at a pressure of 100 mmHg, at 37° C.
6. Attach a hook, connected to a transducer (Physiograph MK-111-S, Narco Bio-Systems) to the apex of the heart.
7. Perfuse heart for 20 min. with Krebs-Henseleit buffer to enable heart to stabilize (reservoir volume: 270 ml).
8. […]

Compound	inhibition of anti-GAL IgM and/or IgG staining of porcine cells by sugar (PK-1 and PAE's cells)	decrease of anti-GAL antibody staining of PAE's (FIG. 1) (PK-1 and PAE's cells)	cardiac function of rat heart perfused with human plasma plus sugar (rat heart)	cardiac function of rat heart perfused with human plasma plus sugar (rat heart; listed as lactose)
OC[C@H]1O[C@@H](O[C@H]2[C@H](O)[C@@H](O)[C@@H](O)O[C@@H]2CO)[C@H](O)[C@@H](O)[C@H]1O [Lactose, 4-O-β-D.galactopyranosyl-α-D-glucose]	not inhibited	not affected significantly	does-not prolong heart survival	the heart essentially stopped beating within minutes. The same result was obtained
O=C[C@H](O)[C@@H](O)[C@H](O)[C@H](O)CO[C@H]1O[C@H](CO)[C@H](O)[C@H](O)[C@H]1O [Melibiose, 6-O-α-D-galactopyranosyl-D-glucose]	inhibited	approximately 10 fold less	the heart was able to maintain a strong beat; also recorded: prolongs heart survival and output	
